According to article PMC10916382, “Repurposing screen identifies novel candidates for broad-spectrum coronavirus antivirals and druggable host targets” (Antimicrobial Agents and Chemotherapy, 2024):
Counter-ions that a name gives are not always drawn. Like-named read-outs stand apart in the source and are kept apart here.

Experiments:
Huh-7.5/F-Luc cells = conditions: Huh-7.5 cells, dose series, maximum tested dose 5 µM
SARS-CoV-2 = conditions: Calu-3 cells
HCoV-229E = assay: microbe, parasite or virus in culture; assay type: cell-based, Homo sapiens sapiens; conditions: Human coronavirus 229E, Huh7.5
[1] = Anti-SARS-CoV-2 screening on Calu-3 cells: viability [% of control], Calu-3 cells

SMILES	CC50 (µM) (Huh-7.5/F-Luc cells)	viability (in vitro; [1])	Anti-SARS-CoV-2 screening on Calu-3 cells: intracellular SARS-CoV-2 infection measured via immunofluorescence imaging [% of control] (SARS-CoV-2)	IC50 (HCoV-229E; read-out: IC50)	viability at 48 h, 5 µM (in vitro)	IC50 (HCoV-229E)	total cell numbers (SARS-CoV-2; 5 µM, DAPI, relative to DMSO)	reduction of infected cell numbers (SARS-CoV-2; 5 µM, N protein immunofluorescence, relative to DMSO)	viability (in vitro)
CO[C@@H]1[C@H](O)C[C@@H](O[C@@H]2C[C@H](Oc3cc4cc5c(c(O)c4c(O)c3C)C(=O)[C@@H](O[C@H]3C[C@@H](O[C@H]4C[C@@H](O[C@H]6C[C@](C)(O)[C@@H](OC(C)=O)[C@H](C)O6)[C@H](O)[C@@H](C)O4)[C@H](O)[C@@H](C)O3)[C@H]([C@H](OC)C(=O)[C@@H](O)[C@@H](C)O)C5)O[C@H](C)[C@@H]2OC(C)=O)O[C@@H]1C [CHROMOMYCIN A3]	greater than maximum tested dose	61.3%	60.39 % of control	160 nM	–	–	–	–	–
COc1ccc(C(C)C)cc1CN[C@@H]1C2CCN(CC2)[C@H]1C(c1ccccc1)c1ccccc1 [RFM-011-107-9]	greater than maximum tested dose	–	82.87 % of control	–	83.9%	1100 nM	–	–	–
CC(C)(C)NCc1ccc(Nc2ccnc3cc(Cl)ccc23)cc1O [N-tert-Butylisoquine]	greater than maximum tested dose	106%	111.10 % of control	–	–	540 nM	–	–	–
CN(C)CCOC1=Cc2ccccc2Sc2ccc(Cl)cc21 [zotepine]	greater than maximum tested dose	–	107.66 % of control	–	98.1%	1040 nM	–	–	–
Cc1nc2c(N3CCNCC3)cccc2n1S(=O)(=O)c1ccccc1 [PF-5212377]	greater than maximum tested dose	104%	99.72 % of control	–	–	1150 nM	–	–	–
CN(C)c1ccc(C(=C2C=CC(=[N+](C)C)C=C2)c2ccc(N(C)C)cc2)cc1 [Gentian violet, reference compound]	greater than maximum tested dose	–	6.34 % of control	–	101%	120 nM	≥ 75%	more than 50%	–
OCCN1CCN(CC/C=C2/c3ccccc3Sc3ccc(Cl)cc32)CC1 [ZUCLOPENTHIXOL]	greater than maximum tested dose	–	108.85 % of control	–	110%	1130 nM	–	–	–
CCN(CC)CCN(Cc1ccc(-c2ccc(C(F)(F)F)cc2)cc1)C(=O)Cn1c(SCc2ccc(F)cc2)nc(=O)c2c1CCC2 [Darapladib]	greater than maximum tested dose	–	107.62 % of control	–	103%	300 nM	–	–	–
COc1ccc2c(c1)CCC(c1ccccc1)=C2c1ccc(OCCN2CCCC2)cc1 [nafoxidine]	greater than maximum tested dose	–	104.91 % of control	–	110%	370 nM	–	–	–
C1CCC(C(CC2CCCCN2)C2CCCCC2)CC1 (centres unmarked) [PERHEXILINE]	greater than maximum tested dose	–	116.50 % of control	–	97%	670 nM	–	–	–
COc1cccc2c1C(=O)c1c(O)c3c(c(O)c1C2=O)C[C@@](O)(C(=O)CO)C[C@@H]3O[C@H]1C[C@H](N2CCO[C@H](OC)C2)[C@H](O)[C@H](C)O1 [NEMORUBICIN]	greater than maximum tested dose	–	46.15 % of control	170 nM	–	–	–	–	16.5%
Oc1ccc2c(c1)CC[C@H](c1ccccc1)[C@@H]2c1ccc(OCCN2CCCC2)cc1 [Lasofoxifene]	greater than maximum tested dose	92.8%	119.41 % of control	–	–	750 nM	–	–	–
Cc1ccc(Sc2ccccc2N2CCNCC2)c(C)c1 [Vortioxetine hydrobromide]	greater than maximum tested dose	82.8%	101.64 % of control	–	–	990 nM	–	–	–
CC1=C(c2ccc(O)cc2)[C@H](c2ccc(OCCN3CCCCC3)cc2)Oc2cc(O)ccc21 [ACOLBIFENE]	greater than maximum tested dose	–	111.23 % of control	–	88%	990 nM	–	–	–
COc1ccc(C(C)C)cc1CNC1C2CCN(CC2)C1C(c1ccccc1)c1ccccc1 (centres unmarked) [RFM-011-108-0]	greater than maximum tested dose	–	86.21 % of control	–	96.4%	850 nM	–	–	–
